Patent US11124818B2 (priority 2017, dated 2021)
Starred links: 1 amine or outer side, 2 acyl side, 3 side chain; linkers in the order of their positions; H or OH if unused. Positions of bridges follow the written chain, without caps; N, C: chain ends. Non-standard residues stand in square brackets, D forms with d. Residues, ends and D or L forms follow the SMILES beside them. *: point of attachment. Adda = CO[C@@H](Cc1ccccc1)[C@@H](C)/C=C(C)/C=C/[C@H](N[*:1])[C@H](C)C(=O)[*:2]; dAsp(3S-Me) = C[C@H](C(=O)[*:3])[C@@H](N[*:1])C(=O)[*:2]; Dolaproine = CO[C@@H]([C@@H]1CCCN1)[C@@H](C)C(=O)O; Dil = CC[C@H](C)[C@H](NC)[C@@H](CC(=O)O)OC; d(γGlu) = O=C(O)[C@@H](CCC(=O)[*:2])N[*:1]; X2 = C[C@@H](N*)[C@@H](O)c1ccccc1; NMeV = CN[C@H](C(=O)O)C(C)C; NMeDha = C=C(NC)C(=O)O

Assays:
[1] = tested on: OATP1B1-expressing HeLa and RKO cells; conditions: cited from earlier work
[2] = tested on: OATP1B3-expressing HeLa and RKO cells; conditions: cited from earlier work
[3] = tested on: type 1 protein phosphatases; conditions: cited from earlier work
[4] = tested on: OATP1B1-expressing HeLa and RKO cells; type: cell-based
human tumor cell lines = conditions: cited from earlier work

SMILES | IC50 [1] | IC50 [2] | IC50 [3] | Ratio 1B1 to 1B3 [4] | cytotoxic potency (human tumor cell lines)
C=C1C(=O)N[C@H](C)C(=O)N[C@@H](CC(C)C)C(=O)N[C@@H](C(=O)O)[C@H](C)C(=O)N[C@@H](CCCNC(=N)N)C(=O)N[C@@H](/C=C/C(C)=C/[C@H](C)[C@H](Cc2ccccc2)OC)[C@H](C)C(=O)N[C@@H](C(=O)O)CCC(=O)N1C [LR, microcystin-LR] (R[Adda][d(γGlu)][NMeDha][dA]L[dAsp(3S-Me)]-OH; lactam N-7) | 1 nM | 5.1 nM | 0.03 nM | 0.2 | 
CC[C@H](C)[C@@H]([C@@H](CC(=O)N1CCC[C@H]1[C@H](OC)[C@@H](C)C(=O)N[C@H](C)[C@@H](O)c1ccccc1)OC)N(C)C(=O)[C@@H](NC(=O)[C@@H](NC)C(C)C)C(C)C [Monomethyl auristatin E] (H-[NMeV]V[Dil][Dolaproine]-X2) |  |  |  |  | 3.9 to 10.3 nM
C/C=C1/C(=O)N[C@@H](C(=O)O)[C@H](C)C(=O)N[C@@H](CCCNC(=N)N)C(=O)N[C@@H](/C=C/C(C)=C/[C@H](C)[C@H](Cc2ccccc2)OC)[C@H](C)C(=O)N[C@@H](C(=O)O)CCC(=O)N1C [NOD, Nodularin] | 8.4 nM | > 100 nM |  | <0.1 | 
